# Assay results published in the supplement of paper PMC11208160.
# Assay: recombinant UMI read abundance after kanamycin selection (control-corrected) (log10(CPM+1)); higher = more efficient recombination; extreme values may be limits of the assay; sequences stand for … in AGTGCAGAGAAAATCGGCCAGTTTTCTCTGCCTGCAGTCCGCATGCCGTGGGACCCCTTGGGTTCTAACCTGTTGCCTAGATTTATGCAGCGGACTGCCTTTCTCCCAAAGTGATAAACCGG…AGGTTGGTTTCACT; site = the 11-nt donor
# Method in brief: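 Sequencing read counts were converted to CPM, averaged over two replicates and scaled by control-derived factors. Results are given as log10(CPM+1). The reads covered the donor–target junction of recombinant UMIs from a pooled Escherichia coli screen of donor and donor-binding-loop pairs for the IS621 bridge recombinase.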
# 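Further: IS621 bridge recombinase in Escherichia coli cells against a fixed T5 target plasmid.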
row,Sequence,recombinant UMI read abundance (log10)
1,GCAGTGACATGGACCGGTTTTCCCGGTAATCCGTATTTGCG (site GCAGTGACTCG),2.18
2,GCAGTTTCATGGACCGGTTTTCCCGGTAATCCGTATTTGCA (site GCAGTTTCTTG),2.59
3,GCATACTCATGGACCGGTTTTCCCGGTAATCCGTATTTGCA (site ACATACTCTTG),2.41
4,GCATACTCATGGACCGGTTTTCCCGGTAATCCGTATTTGCA (site CCATACTCTTG),2.9
5,GCATACTCATGGACCGGTTTTCCCGGTAATCCGTATTTGCA (site GCATACTCTTG),2.96
6,GCATACTCATGGACCGGTTTTCCCGGTAATCCGTATTTGCA (site TCATACTCTTG),2.61
7,GCATAGTCATGGACCGGTTTTCCCGGTAATCCGTATTTGTT (site GCATAGTCTAA),3.29
8,GCATCGGCATGGACCGGTTTTCCCGGTAATCCGTATTTGAC (site GCATCGGCTGT),2.09
9,GCATGCCCATGGACCGGTTTTCCCGGTAATCCGTATTTGAT (site GCATGCCCTAT),0.197
10,GCATGCCCATGGACCGGTTTTCCCGGTAATCCGTATTTGAT (site GCCTGCCCTAT),0.226
11,GCATGCCCATGGACCGGTTTTCCCGGTAATCCGTATTTGAT (site GCGTGCCCTAT),0.0164
12,GCATGCCCATGGACCGGTTTTCCCGGTAATCCGTATTTGAT (site GCTTGCCCTAT),0.0139
13,GCATGGCCATGGACCGGTTTTCCCGGTAATCCGTATTTGCA (site GAATGGCCTTG),0
14,GCATGGCCATGGACCGGTTTTCCCGGTAATCCGTATTTGCA (site GCATGGCCTTG),0
15,GCATGGCCATGGACCGGTTTTCCCGGTAATCCGTATTTGCA (site GGATGGCCTTG),0.0185
16,GCATGGCCATGGACCGGTTTTCCCGGTAATCCGTATTTGCA (site GTATGGCCTTG),0.0194
17,GCATTACCATGGACCGGTTTTCCCGGTAATCCGTATTTGTC (site GCATTACCTGA),0
18,GCCAACGCATGGACCGGTTTTCCCGGTAATCCGTATTTGAA (site GCCAACGCTTT),1.63
19,GCCAAGGCATGGACCGGTTTTCCCGGTAATCCGTATTTGAG (site GCCAAGGCTCT),1.49

row,Sequence,recombinant UMI read abundance (log10)
1,GCCACGCCATGGACCGGTTTTCCCGGTAATCCGTATTTGAA (site GCCACGCCTTA),0.00688
2,GCCACGCCATGGACCGGTTTTCCCGGTAATCCGTATTTGAA (site GCCACGCCTTC),0.0229
3,GCCACGCCATGGACCGGTTTTCCCGGTAATCCGTATTTGAA (site GCCACGCCTTG),0
4,GCCACGCCATGGACCGGTTTTCCCGGTAATCCGTATTTGAA (site GCCACGCCTTT),0.0176
5,GCCACGCCATGGACCGGTTTTCCCGGTAATCCGTATTTGCA (site GCCACGCCTTA),0
6,GCCACGCCATGGACCGGTTTTCCCGGTAATCCGTATTTGCA (site GCCACGCCTTC),0.0237
7,GCCACGCCATGGACCGGTTTTCCCGGTAATCCGTATTTGCA (site GCCACGCCTTG),1.36
8,GCCACGCCATGGACCGGTTTTCCCGGTAATCCGTATTTGCA (site GCCACGCCTTT),0.0202
9,GCCACGCCATGGACCGGTTTTCCCGGTAATCCGTATTTGGA (site GCCACGCCTTA),0.00593
10,GCCACGCCATGGACCGGTTTTCCCGGTAATCCGTATTTGGA (site GCCACGCCTTC),0.0144
11,GCCACGCCATGGACCGGTTTTCCCGGTAATCCGTATTTGGA (site GCCACGCCTTG),0
12,GCCACGCCATGGACCGGTTTTCCCGGTAATCCGTATTTGGA (site GCCACGCCTTT),0.00923
13,GCCACGCCATGGACCGGTTTTCCCGGTAATCCGTATTTGTC (site GCCACGCCTAA),0
14,GCCACGCCATGGACCGGTTTTCCCGGTAATCCGTATTTGTC (site GCCACGCCTCA),0.015
15,GCCACGCCATGGACCGGTTTTCCCGGTAATCCGTATTTGTC (site GCCACGCCTGA),1.03
16,GCCACGCCATGGACCGGTTTTCCCGGTAATCCGTATTTGTC (site GCCACGCCTTA),0.0128
17,GCCACGCCATGGACCGGTTTTCCCGGTAATCCGTATTTGTG (site GCCACGCCTAA),0.0114
18,GCCACGCCATGGACCGGTTTTCCCGGTAATCCGTATTTGTG (site GCCACGCCTCA),0.0225
19,GCCACGCCATGGACCGGTTTTCCCGGTAATCCGTATTTGTG (site GCCACGCCTGA),0

row,Sequence,recombinant UMI read abundance (log10)
1,GCCACGCCATGGACCGGTTTTCCCGGTAATCCGTATTTGTG (site GCCACGCCTTA),0.0106
2,GCCACGTCATGGACCGGTTTTCCCGGTAATCCGTATTTGCA (site GCCACGTCTTG),2.76
3,GCCCACACATGGACCGGTTTTCCCGGTAATCCGTATTTGTA (site ACCCACACTTA),1.08
4,GCCCACACATGGACCGGTTTTCCCGGTAATCCGTATTTGTA (site CCCCACACTTA),1.37
5,GCCCACACATGGACCGGTTTTCCCGGTAATCCGTATTTGTA (site GCCCACACTTA),1.78
6,GCCCACACATGGACCGGTTTTCCCGGTAATCCGTATTTGTA (site TCCCACACTTA),1.02
7,GCCCACCCATGGACCGGTTTTCCCGGTAATCCGTATTTGTT (site GACCACCCTAA),0.0217
8,GCCCACCCATGGACCGGTTTTCCCGGTAATCCGTATTTGTT (site GCCCACCCTAA),0.051
9,GCCCACCCATGGACCGGTTTTCCCGGTAATCCGTATTTGTT (site GGCCACCCTAA),0.0315
10,GCCCACCCATGGACCGGTTTTCCCGGTAATCCGTATTTGTT (site GTCCACCCTAA),0.0135
11,GCCCACGCATGGACCGGTTTTCCCGGTAATCCGTATTTGGA (site GCCCACGCTTC),0.94
12,GCCCGAGCATGGACCGGTTTTCCCGGTAATCCGTATTTGGA (site GCCCGAGCTTC),0.73
13,GCCCGCACATGGACCGGTTTTCCCGGTAATCCGTATTTGTG (site GCCCGCACTCA),0.0672
14,GCCCGCTCATGGACCGGTTTTCCCGGTAATCCGTATTTGAG (site GCCCGCTCTCT),0.704
15,GCCCGTTCATGGACCGGTTTTCCCGGTAATCCGTATTTGAG (site GCCCGTTCTCT),2.23
16,GCCCTCCCATGGACCGGTTTTCCCGGTAATCCGTATTTGTG (site GCCCTCCCTCA),0.0428
17,GCCCTTTCATGGACCGGTTTTCCCGGTAATCCGTATTTGCT (site GCCCTTTCTAG),1.67
18,GCCGAACCATGGACCGGTTTTCCCGGTAATCCGTATTTGGG (site GCCGAACCTCC),0.0289
19,GCCGATGCATGGACCGGTTTTCCCGGTAATCCGTATTTGGC (site GCCGATGCTGC),0.846
